Source: patent US6548476B1, “Dimeric inhibitors of influenza neuraminidase” (priority 1999, dated 2003)
Values after ≈ are worked out from the molar mass of the structure shown. Like-named read-outs stand apart in the source and are kept apart here.

Assays:
influenza A virus = test: Inhibition of influenza A virus replication (cytopathic effect) in MDCK cells; conditions: for ID50: MDCK cells, influenza A virus
MDCK cells [1] = test: Minimum cytotoxic drug concentration in the MDCK cell replication assay
MDCK cells [2] = conditions: dog
[3] = Cytotoxicity (CC50) in the CPE type assay of Example 7; assay type: cell-based; conditions: CPE assay of Example 7; three separate experiments (test 1-3)
[4] = system: influenza A/Victoria/3/75 B010; test: Inhibition of influenza A/Victoria/3/75 B010 replication, standard CPE type assay; assay type: cell-based; conditions: for EC50: three separate experiments (test 1-3)

| SMILES | ID50 (μg of (A)) (influenza A virus) | ID50 (influenza A virus) | MTC (MDCK cells [1]) | MTC (MDCK cells [2]) | CC50 [3] | EC90 ([4]; test 1) | EC50 [4] | EC50 ([4]; Influenza A virus, read-out: EC50) |
| --- | --- | --- | --- | --- | --- | --- | --- | --- |
| CC(=O)N[C@H]1[C@H]([C@H](OC(=O)NCCCCCCNC(=O)NCCCCNC(=O)NCCCCCCNC(=O)O[C@@H]([C@@H]2OC(C(=O)O)=C[C@H](NC(=N)N)[C@H]2NC(C)=O)[C@H](O)CO)[C@H](O)CO)OC(C(=O)O)=C[C@@H]1NC(=N)N [(2)] | 0.013 μg of (A) | 0.007 µg/mL (≈ 0.00643 µM) | >10 µg/mL | – | – | – | – | – |
| CC(=O)N[C@H]1[C@H]([C@H](OC(=O)NCCCCCCNC(=O)NCCCCCCCCCCCCNC(=O)NCCCCCCNC(=O)O[C@@H]([C@@H]2OC(C(=O)O)=C[C@H](NC(=N)N)[C@H]2NC(C)=O)[C@H](O)CO)[C@H](O)CO)OC(C(=O)O)=C[C@@H]1NC(=N)N [(3), Bis-[7-(6′-hexyleneureodo)-carbamoyloxy-5-acetamido-4-guanidino-2,3,4,5-tetradeoxy-D-glycero-D-galacto-non-2-enopyranosonic acid]] | 0.028 μg of (A) | 0.017 µg/mL (≈ 0.0142 µM) | >10 µg/mL | – | – | – | – | – |
| CC(=O)N[C@H]1[C@H]([C@H](OC(=O)NCCCCCCNC(=O)CNC(=O)CNC(=O)CNC(=O)NCCCCCCNC(=O)NCC(=O)NCC(=O)NCC(=O)NCCCCCCNC(=O)O[C@@H]([C@@H]2OC(C(=O)O)=C[C@H](NC(=N)N)[C@H]2NC(C)=O)[C@H](O)CO)[C@H](O)CO)OC(C(=O)O)=C[C@@H]1NC(=N)N [(4)] | 0.11 μg of (A) | 0.084 µg/mL (≈ 0.0576 µM) | >10 µg/mL | – | – | – | – | – |
| CC(=O)N[C@H]1[C@H]([C@H](OC(=O)NCCCCCCNC(=O)CCCCCNC(=O)CCCCCNC(=O)NCCCCCCCCCCCCNC(=O)NCCCCCC(=O)NCCCCCC(=O)NCCCCCCNC(=O)O[C@@H]([C@@H]2OC(C(=O)O)=C[C@H](NC(=N)N)[C@H]2NC(C)=O)[C@H](O)CO)[C@H](O)CO)OC(C(=O)O)=C[C@@H]1NC(=N)N [(5)] | 0.42 μg of (A) | 0.35 µg/mL (≈ 0.212 µM) | >10 µg/mL | – | – | – | – | – |
| CC(=O)N[C@H]1[C@H]([C@H](OC(=O)NCCCCCCNC(=O)CCCCCNC(=O)CCCCCNC(=O)CCCCCNC(=O)CCCCCNC(=O)NCCCCCCNC(=O)NCCCCCC(=O)NCCCCCC(=O)NCCCCCC(=O)NCCCCCC(=O)NCCCCCCNC(=O)O[C@@H]([C@@H]2OC(C(=O)O)=C[C@H](NC(=N)N)[C@H]2NC(C)=O)[C@H](O)CO)[C@H](O)CO)OC(C(=O)O)=C[C@@H]1NC(=N)N [(6)] | 0.62 μg of (A) | 0.63 µg/mL (≈ 0.311 µM) | >10 µg/mL | – | – | – | – | – |
| CC(=O)N[C@H]1[C@H]([C@H](OC(=O)NCCCCCCN)[C@H](O)CO)OC(C(=O)O)=C[C@@H]1NC(=N)N [(7), 5-acetamido-7-(6′-aminohexyl)-carbamoyloxy-4-guanidino-2,3,4,5-tetradeoxy-D-glycero-D-galacto-non-2-enopyranosonic acid, reference compound] | 0.32 μg of (A) | 0.22 µg/mL (≈ 0.464 µM) | – | >10 µg/mL | – | – | – | – |
| CC(=O)N[C@H]1[C@H]([C@H](OC(=O)NCCCCCCNC(=O)CN(CCN(CC(=O)O)CC(=O)NCCCCCCNC(=O)O[C@@H]([C@@H]2OC(C(=O)O)=C[C@H](NC(=N)N)[C@H]2NC(C)=O)[C@H](O)CO)CC(=O)O)[C@H](O)CO)OC(C(=O)O)=C[C@@H]1NC(=N)N [Compound 8, Bis-[7-(6′-methyleneamine-N-acetic acid-N-acetamido-hexyl)-carbamoyloxy-5-acetamido-4-guanidino-2,3,4,5-tetradeoxy-D-glycero-D-galacto-non-2-enopyranosonic acid]] | – | – | – | – | >0.1 µg/mL | 0.0671 µg/mL (≈ 0.0557 µM) | 0.00971 µg/mL (≈ 0.00806 µM) | – |
| CC(=O)N[C@H]1[C@H]([C@H](O)[C@H](O)CO)OC(C(=O)O)=C[C@@H]1NC(=N)N [Compound (A), 4-guanidino-2-deoxy-2,3-dehydro-N-acetylneuraminic acid, reference compound] | 0.028 μg of (A) | 0.0095 µg/mL (≈ 0.0286 µM) | >10 µg/mL | – | – | – | – | 0.009 µg/mL (≈ 0.0271 µM) |
